# Reference: patent US8506946B2, “Compositions and methods for attracting noctuid moths” (Cotton Incorporated, priority 2006, dated 2013)
# How the values were obtained:
# [1] = system: Heliothis virescens; test: Field trap capture of Heliothis virescens with pheromone mixture with or without synergist (Tedders traps); assay type: in vivo
# Protocol: An experiment was carried out near Monticello, Drew County in Arkansas to study the response of tobacco bud worm, Heliothis virescens to a pheromone synergist. The experiment was carried out in a habitat of cotton and soybean. β-caryophyllene was used as a synergist with a mixture of pheromones (Z,E)-9,12-tetradecadien-1-ol acetate and (Z)-9-tetradecen-1-ol acetate at the ratio of 7:3. Tedders traps were used in the experiment. Each pheromone trap was baited with the pheromone mixture and approximately 3-6 mg of 3-caryophyllene and each control trap was baited with the pheromone mixture. The control trap contained no β-caryophyllene or other synergists. The pheromone mixture used in the experiment was LURETAPE® obtained from Hereon Environmental in Emigsville, Pa. The trapped adult insects of Heliothis virescens were collected on a daily basis and the total number of trapped insects was counted. Statistical analysis was done using the Least Squares means separation from the SAS GLM procedure.
# [2] = system: Spodoptera exigua; test: Field trap capture of Spodoptera exigua with (Z)-11-hexadecen-1-ol with or without synergist (Tedders traps); assay type: in vivo; details: approximately 3-6 mg β-caryophyllene added to (Z)-11-hexadecen-1-ol vs control trap with (Z)-11-hexadecen-1-ol only
# Protocol: An experiment was carried out in three locations in Arkansas to study the response of beet army worm, Spodoptera exigua, in a cotton field to a pheromone synergist. The locations were near Fayetteville, Washington County, near Tillar, Drew County, and near Foreman, Little River County. β-caryophyllene was used as a synergist with (Z)-11-hexadecen-1-ol, a pheromone for Spodoptera exigua. Tedders traps were used in the experiment. Each pheromone trap was baited with (Z)-11-hexadecen-1-ol and approximately 3-6 mg of β-caryophyllene and each control trap was baited with (Z)-11-hexadecen-1-ol. The control trap contained no β-caryophyllene or other synergists. The trapped adult insects of Spodoptera exigua were collected on a daily basis and the total number of trapped insects was counted. Statistical analysis was done using the Least Squares means separation from the SAS GLM procedure.
structure (smiles),measurement,setting,value
C=C1CC/C=C(\C)CC[C@@H]2[C@@H]1CC2(C)C [β-caryophyllene],increase in the number of captured Heliothis virescens,"[1]; year 2004, approximately 3-6 mg β-caryophyllene added to pheromone mixture 7:3 (LURETAPE) vs control trap with pheromone mixture only, FIG. 2",~147%
same,increase in the number of captured Heliothis virescens,"[1]; year 2005, approximately 3-6 mg β-caryophyllene added to pheromone mixture (Z,E)-9,12-tetradecadien-1-ol acetate and (Z)-9-tetradecen-1-ol acetate 7:3 (LURETAPE) vs control trap with pheromone mixture only, cotton and soybean habitat, Arkansas, FIG. 1",~131%
same,change in the number of captured Spodoptera exigua,"[2]; year 2004, FIG. 4",~−9%
same,increase in the number of captured Spodoptera exigua,"[2]; year 2005, cotton field, three locations in Arkansas, FIG. 3",~69%
